# Patent US20250236611A1, “PYRAZOLE COMPOUNDS AND USES THEREOF” (ALCON INC., priority 2021, published 2025)
# How the values were obtained:
# Assay type in all cases: biochemical
# Details in all cases: 10 nM JAK enzyme, 800 nM Abl peptide, room temperature 75 min
# JAK3 = target: T1, JAK3 (Homo sapiens, UniProt P52333); experiment: JAK assay (KINASE-GLO luminescent kinase assay), JAK3
# T1 sequence (P52333 1-1124): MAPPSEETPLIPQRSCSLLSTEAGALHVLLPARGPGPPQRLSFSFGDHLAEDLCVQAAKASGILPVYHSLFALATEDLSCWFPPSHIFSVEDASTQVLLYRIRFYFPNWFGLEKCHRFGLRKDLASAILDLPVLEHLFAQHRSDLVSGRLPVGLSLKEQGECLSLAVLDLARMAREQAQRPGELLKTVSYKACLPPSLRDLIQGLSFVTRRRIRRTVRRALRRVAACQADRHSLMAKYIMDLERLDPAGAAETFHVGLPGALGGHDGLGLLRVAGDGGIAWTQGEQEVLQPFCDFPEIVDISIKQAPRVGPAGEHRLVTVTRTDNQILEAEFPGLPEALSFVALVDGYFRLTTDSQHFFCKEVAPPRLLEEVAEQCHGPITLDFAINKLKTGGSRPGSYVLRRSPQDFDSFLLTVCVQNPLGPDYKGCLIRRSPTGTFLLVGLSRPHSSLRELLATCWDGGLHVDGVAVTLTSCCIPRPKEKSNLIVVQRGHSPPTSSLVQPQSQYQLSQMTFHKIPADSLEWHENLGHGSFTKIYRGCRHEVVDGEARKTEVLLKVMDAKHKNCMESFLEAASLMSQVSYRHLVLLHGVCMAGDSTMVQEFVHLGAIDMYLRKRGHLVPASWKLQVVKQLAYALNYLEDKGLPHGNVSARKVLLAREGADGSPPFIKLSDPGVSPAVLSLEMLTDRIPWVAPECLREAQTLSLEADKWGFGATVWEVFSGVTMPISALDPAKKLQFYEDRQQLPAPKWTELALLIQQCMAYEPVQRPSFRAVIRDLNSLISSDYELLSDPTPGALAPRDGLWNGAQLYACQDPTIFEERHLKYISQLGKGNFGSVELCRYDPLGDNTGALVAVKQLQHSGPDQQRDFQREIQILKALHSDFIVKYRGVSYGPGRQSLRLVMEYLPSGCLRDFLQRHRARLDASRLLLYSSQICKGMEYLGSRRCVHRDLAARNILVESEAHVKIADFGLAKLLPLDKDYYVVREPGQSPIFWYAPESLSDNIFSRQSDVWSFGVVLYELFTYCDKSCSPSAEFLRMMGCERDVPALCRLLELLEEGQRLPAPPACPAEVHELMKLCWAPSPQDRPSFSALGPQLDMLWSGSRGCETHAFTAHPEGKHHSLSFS
# Procedure: (§1) All compounds were initially prepared as 10 mM stocks in anhydrous dimethylsulfoxide (DMSO). A 20 μL aliquot of the 10 mM solutions was transferred to individual wells in column 1 of a 96-well polypropylene microtiter plate (Corning #3363) and diluted with DMSO to give a final compound concentration of 4 mM. Test compounds were then serially diluted 1:5 in DMSO for an 11-point concentration response and further diluted in the assay buffer bringing all compound concentrations to a final range of 100 μM to 10 pM in 2.5% DMSO. The assay was performed in white 96-well, flat-bottom, half-area, non-binding assay plate (Corning #3642) in assay buffer consisting of 20 mM HEPES (pH 7.5), 10 mM MgCl2*6H2O, 100 μM sodium orthovanadate, 0.05% CHAPS and 0.1% bovine serum albumin. A 10 μL aliquot of compound from each well of the intermediate dilution plate and 20 μL of a 2×JAK substrate/enzyme solution containing acceptor substrate (800 nM Abl peptide), JAK enzyme (10 nM JAK1, JAK2, JAK3, or TYK2), and 1,4-Dithiothreitol (DTT, 2 μM) were added to all wells. The reaction was initiated by the addition of 10 μL of 4× stock solution ATP (2 μM). Reactions were thoroughly mixed manually, covered and allowed to incubate at room temperature for 75 min. Protein kinase activity was quantitated using Promega's KINASE-GLO™ luminescent Kinase Assay Kit according to the manufacturer's directions. ATP concentrations remaining in Test wells following the termination of the enzymatic reaction were compared against control wells containing equivalent amounts of DMSO containing no inhibitor (CTRL). […] Percent of Control (POC) values were determined for each concentration of compound tested according to the equation:
# (§2) [formula] • IC50 values were calculated using the following 4-parameter logistic curve-fitting algorithm:
# (§3) [formula] • IC50 values were converted to Ki values using the Cheng-Prusoff Equation: […]
# JAK1 = JAK1 (Homo sapiens, UniProt P23458); experiment: JAK assay (KINASE-GLO luminescent kinase assay), JAK1
# Procedure: as §1, §2, §3
# JAK2 = JAK2 (Homo sapiens, UniProt O60674); experiment: JAK assay (KINASE-GLO luminescent kinase assay), JAK2
# Procedure: as §1, §2, §3
# TYK2 = TYK2 (Homo sapiens, UniProt P29597); experiment: JAK assay (KINASE-GLO luminescent kinase assay), TYK2
# Procedure: as §1, with “A 20 μL aliquot of the 10 mM solutions was transferred to individual wells in column 1 of a 96-well polypropylene microtiter plate (Corning #3363) and diluted with DMSO to give a final compound concentration of 4 mM.” left out
# as §2, §3
# Chain of JAK1 (P23458 whole entry): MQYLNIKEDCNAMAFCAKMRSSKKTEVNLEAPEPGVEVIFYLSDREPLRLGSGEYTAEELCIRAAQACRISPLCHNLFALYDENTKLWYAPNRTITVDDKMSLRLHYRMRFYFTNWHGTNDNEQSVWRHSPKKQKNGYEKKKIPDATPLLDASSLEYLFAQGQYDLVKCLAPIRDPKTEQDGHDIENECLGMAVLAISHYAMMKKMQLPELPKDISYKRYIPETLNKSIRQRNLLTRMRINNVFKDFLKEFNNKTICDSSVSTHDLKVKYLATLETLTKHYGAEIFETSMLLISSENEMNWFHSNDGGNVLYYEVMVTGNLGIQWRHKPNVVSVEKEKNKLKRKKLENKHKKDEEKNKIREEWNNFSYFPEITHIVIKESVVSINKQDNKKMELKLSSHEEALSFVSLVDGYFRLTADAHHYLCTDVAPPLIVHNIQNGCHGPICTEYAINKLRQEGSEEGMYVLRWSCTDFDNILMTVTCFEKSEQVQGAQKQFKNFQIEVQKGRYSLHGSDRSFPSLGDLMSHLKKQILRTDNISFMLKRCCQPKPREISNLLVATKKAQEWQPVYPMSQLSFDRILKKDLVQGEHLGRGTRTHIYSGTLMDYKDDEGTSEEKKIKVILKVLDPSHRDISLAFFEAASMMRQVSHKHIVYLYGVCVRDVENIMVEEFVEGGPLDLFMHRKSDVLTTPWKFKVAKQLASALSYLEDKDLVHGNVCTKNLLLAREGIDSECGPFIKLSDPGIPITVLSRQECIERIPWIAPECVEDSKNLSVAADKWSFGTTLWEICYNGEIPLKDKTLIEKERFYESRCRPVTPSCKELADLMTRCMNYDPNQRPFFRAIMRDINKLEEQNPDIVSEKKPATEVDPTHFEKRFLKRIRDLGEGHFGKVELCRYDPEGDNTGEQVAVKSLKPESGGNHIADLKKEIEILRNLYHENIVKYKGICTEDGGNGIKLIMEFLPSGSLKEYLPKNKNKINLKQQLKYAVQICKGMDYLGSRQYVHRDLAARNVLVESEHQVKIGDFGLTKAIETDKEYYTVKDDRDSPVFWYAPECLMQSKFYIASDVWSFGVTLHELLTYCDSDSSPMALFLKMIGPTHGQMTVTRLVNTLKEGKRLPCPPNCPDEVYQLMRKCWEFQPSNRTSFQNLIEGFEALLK
# Chain of TYK2 (P29597 whole entry): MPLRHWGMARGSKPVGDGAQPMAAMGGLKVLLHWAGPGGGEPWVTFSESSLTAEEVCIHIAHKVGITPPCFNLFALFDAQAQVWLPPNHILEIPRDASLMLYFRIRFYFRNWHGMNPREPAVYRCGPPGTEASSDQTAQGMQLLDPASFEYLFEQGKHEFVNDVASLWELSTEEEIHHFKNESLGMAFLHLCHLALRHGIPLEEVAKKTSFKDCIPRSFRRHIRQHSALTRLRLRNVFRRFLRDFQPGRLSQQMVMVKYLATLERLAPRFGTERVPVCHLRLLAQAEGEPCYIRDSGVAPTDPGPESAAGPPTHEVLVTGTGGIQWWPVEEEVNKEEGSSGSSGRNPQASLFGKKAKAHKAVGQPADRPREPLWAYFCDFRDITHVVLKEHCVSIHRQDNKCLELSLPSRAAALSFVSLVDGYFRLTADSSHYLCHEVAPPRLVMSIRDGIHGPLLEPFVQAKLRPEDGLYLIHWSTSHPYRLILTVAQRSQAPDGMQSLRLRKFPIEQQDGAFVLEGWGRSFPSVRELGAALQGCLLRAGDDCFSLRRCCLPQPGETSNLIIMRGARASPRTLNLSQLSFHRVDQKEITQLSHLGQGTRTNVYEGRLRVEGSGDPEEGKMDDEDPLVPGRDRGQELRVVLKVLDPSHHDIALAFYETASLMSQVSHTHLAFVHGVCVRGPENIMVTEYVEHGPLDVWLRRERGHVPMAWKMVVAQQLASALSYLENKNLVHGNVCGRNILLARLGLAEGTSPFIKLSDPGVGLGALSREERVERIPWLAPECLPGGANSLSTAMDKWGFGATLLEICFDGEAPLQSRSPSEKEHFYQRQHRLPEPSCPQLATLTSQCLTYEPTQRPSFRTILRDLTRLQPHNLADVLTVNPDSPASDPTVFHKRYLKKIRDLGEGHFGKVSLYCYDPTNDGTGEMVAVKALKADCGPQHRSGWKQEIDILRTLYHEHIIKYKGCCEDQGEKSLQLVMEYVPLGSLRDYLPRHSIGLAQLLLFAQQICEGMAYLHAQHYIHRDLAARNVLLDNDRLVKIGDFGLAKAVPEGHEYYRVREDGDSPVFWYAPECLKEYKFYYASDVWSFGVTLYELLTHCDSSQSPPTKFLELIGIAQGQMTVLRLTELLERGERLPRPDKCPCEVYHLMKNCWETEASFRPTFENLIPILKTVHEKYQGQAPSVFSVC
# Chain of JAK2 (O60674 whole entry): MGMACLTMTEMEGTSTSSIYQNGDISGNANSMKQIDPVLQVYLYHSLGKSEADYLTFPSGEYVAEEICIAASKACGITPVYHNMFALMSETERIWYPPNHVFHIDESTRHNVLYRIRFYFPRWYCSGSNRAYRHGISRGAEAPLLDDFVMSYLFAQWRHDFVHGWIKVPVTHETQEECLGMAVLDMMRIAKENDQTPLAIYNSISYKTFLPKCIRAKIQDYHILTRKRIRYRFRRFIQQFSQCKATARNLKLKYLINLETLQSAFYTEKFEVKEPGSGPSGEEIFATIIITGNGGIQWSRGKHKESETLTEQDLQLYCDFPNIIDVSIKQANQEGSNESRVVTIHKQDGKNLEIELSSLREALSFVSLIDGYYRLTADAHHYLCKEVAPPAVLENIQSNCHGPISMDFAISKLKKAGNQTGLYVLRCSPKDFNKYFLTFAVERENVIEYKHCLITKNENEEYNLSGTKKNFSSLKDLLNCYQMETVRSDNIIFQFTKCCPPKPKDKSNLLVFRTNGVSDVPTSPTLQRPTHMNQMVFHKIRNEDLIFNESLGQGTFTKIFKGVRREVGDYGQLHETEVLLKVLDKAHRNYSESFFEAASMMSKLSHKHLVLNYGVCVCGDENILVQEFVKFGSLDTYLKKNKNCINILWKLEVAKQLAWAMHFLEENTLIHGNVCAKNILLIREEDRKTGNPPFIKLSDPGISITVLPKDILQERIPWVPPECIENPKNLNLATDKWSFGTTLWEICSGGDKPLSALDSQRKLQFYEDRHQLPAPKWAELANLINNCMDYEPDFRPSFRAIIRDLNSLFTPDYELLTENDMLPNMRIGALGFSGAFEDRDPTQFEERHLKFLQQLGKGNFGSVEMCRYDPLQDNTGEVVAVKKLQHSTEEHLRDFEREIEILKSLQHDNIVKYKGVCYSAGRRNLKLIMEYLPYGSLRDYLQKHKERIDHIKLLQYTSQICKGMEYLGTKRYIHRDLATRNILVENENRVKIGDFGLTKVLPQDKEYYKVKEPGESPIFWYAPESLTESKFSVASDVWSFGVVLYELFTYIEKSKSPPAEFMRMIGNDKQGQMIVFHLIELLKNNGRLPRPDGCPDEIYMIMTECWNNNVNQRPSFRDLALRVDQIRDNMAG
SMILES,IC50 (JAK3) [nM],IC50 (JAK1) [nM],IC50 (JAK2) [nM],IC50 (TYK2) [nM]
COCCOc1ccc(Nc2ncc(C)c(-c3cnn(CC4(CF)CC4)c3)n2)cc1 [COCCOC1═CC═C(NC2═NC(═C],< 100,< 100,< 10,< 100
N#CC1(Cn2cc(-c3nc(Nc4ccns4)ncc3Cl)cn2)CCC1 [ClC1═C(N═C(NC2═CC═NS2)N═C1)C3═C[N]],< 100,< 100,< 10,< 100
N#CCCn1cc(-c2nc(Nc3ccsc3)ncc2Cl)cn1 [ClC1═C(N═C(NC2═CSC═C2)N═C1)C3═C[N]],< 100000,< 100000,< 100000,< 100000
N#CCC1(Cn2cc(-c3ccnc(Nc4ccns4)n3)cn2)CC1 [N#CCC1(CC1)C[N]2C═C(C═N2)C3═CC═NC],< 100,< 100,< 10,< 100
CS(=O)(=O)N(c1ncc(Cl)c(-c2cnn(CCC#N)c2)n1)S(C)(=O)=O [C[S](═O)(═O)N(C1═NC(═C],> 50000,> 50000,< 100000,> 50000
N#CCCn1cc(-c2nc(Nc3cccc(CN4CC(F)C4)c3)ncc2Cl)cn1 [FC1CN(C1)CC2═CC═CC(═C2)NC3═NC(═C],< 10,< 100,< 10,< 10
Cc1cnc(Nc2cc(COC(=O)CCN3CCN(C)CC3)ns2)nc1-c1cnn(CC2(CF)CC2)c1 [CN1CCN(CC1)CCC(═O)OCC2═NSC],< 10,< 100,< 10,< 10
CC(C)(C)OC(=O)N1CCN(c2ccc(Nc3ncc(Cl)c(-c4cnn(CCC#N)c4)n3)cc2)CC1 [CC(C)(C)OC(═O)N1CCN(CC1)C2═CC═C],< 10,< 100,< 10,< 10
Cc1cnc(Nc2ccc(CN3CCOCC3)cc2)nc1 [CC1═C(N═C(NC2═CC═C(CN3CCOCC3)C═C2)N═C1)],< 10,< 100,< 10,< 100
COc1cnc(Nc2ccc(C3(O)COC3)cc2)nc1-c1cnn(CC2(CF)CC2)c1 [COC1═C(N═C(NC2═CC═C(C═C2)C3],< 100,< 1000,< 10,< 100
Cc1cc(Nc2ncc(C)c(-c3cnn(CC4(CF)CCC4)c3)n2)ccn1 [CC1═NC═CC(═C1)NC2═NC(═C],< 100,< 1000,< 10,< 100
Cc1cnc(Nc2ccc(C3CN(C(=O)OC(C)(C)C)C3)cc2)nc1-c1cnn(CCC#N)c1 [CC1═C(N═C(NC2═CC═C(C═C2)C3CN],< 100,< 100,< 10,< 10
Cc1cnc(Nc2ccc(N3CCOCC3)cc2)nc1-c1cnn(CC2(C#N)CC2)c1 [C(C1═C(N═C(NC2═CC═C(C═C2)N3CCOCC3)],< 10,< 100,< 10,< 10
Cc1cnc(NCCCN2CCOCC2)nc1-c1cnn(CCC#N)c1 [CC1═C(N═C(NCCCN2CCOCC2)N═C1)C3═C[N]],> 50000,> 50000,< 100000,< 100000
Cc1cc(Nc2ncc(Cl)c(-c3cnn(CCC#N)c3)n2)no1 [CC1═CC(═NO1)NC2═NC(═C],< 1000,< 1000,< 100,< 100
Cc1cnc(Nc2ccc(CN3CCN(C)CC3)cc2)nc1-c1cnn(CC2(CF)CC2)c1 [CN1CCN(CC1)CC2═CC═C(NC3═NC],< 100,< 1000,< 10,< 100
CNC1(Cn2cc(-c3nc(Nc4cc(C)ns4)ncc3Cl)cn2)CC1 [CNC1(CC1)C[N]2C═C(C═N2)C3═C],< 10,< 100,< 10,< 100
CC(C)(C)OC(=O)N1CCC(Nc2ncc(Cl)c(-c3cnn(CCC#N)c3)n2)C(F)(F)C1 (stereo not drawn) [CC(C)(C)OC(═O)N1CCC(NC2═NC(═C],> 50000,> 50000,> 50000,> 50000
Cc1cnc(Nc2ccc3c(c2)OCCN3C)nc1-c1cnn(CC2(CF)CC2)c1 [CN1CCOC2═CC(═CC═C12)NC3═NC(═C],< 100,< 100,< 10,< 100
COC(=O)c1cccc(Nc2ncc(Cl)c(-c3cnn(CCC#N)c3)n2)c1 [COC(═O)C1═CC═CC(═C1)NC2═NC],< 10,< 100,< 10,< 100
NC(=O)CCn1cc(-c2nc(NC3CCNCC3(F)F)ncc2Cl)cn1 (stereo not drawn) [NC(═O)CC[N]1C═C(C═N1)C2═C],> 50000,> 50000,< 100000,> 50000
CNC(=O)c1ccc(Nc2ncc(C)c(-c3cnn(CC4(CF)CC4)c3)n2)cc1 [CNC(═O)C1═CC═C(NC2═NC(═C],< 10,< 10,< 10,< 10
FC(F)C1(Cn2cc(-c3nc(Nc4ccc5cnoc5c4)ncc3Cl)cn2)COC1 [FC(F)C1(COC1)C[N]2C═C(C═N2)C3═C],< 100,< 1000,< 10,< 1000
CN1CCN(c2ccc(Nc3ncc(Cl)c(-c4cnn(CC5(C#N)CC5)c4)n3)cn2)CC1 [CN1CCN(CC1)C2═NC═C(NC3═NC(═C],< 100000,< 100000,< 1000,< 100000
N#CCCn1cc(-c2nc(Nc3cccc(C(=O)O)c3)ncc2Cl)cn1 [OC(═O)C1═CC═CC(═C1)NC2═NC],< 1000,< 1000,< 10,< 1000
Cc1cnc(Nc2cccc(CNC(=O)CN(C)C)c2)nc1-c1cnn(CC2(CF)CC2)c1 [CN(C)CC(═O)NCC1═CC═CC(═C1)NC2═NC],< 10,< 100,< 10,< 100
Cc1cnc(NC(=O)Nc2ccc(Cl)cc2)nc1-c1cnn(CC2(CF)CC2)c1 [CC1═C(N═C(NC(═O)NC2═CC═C],> 50000,> 50000,> 50000,> 50000
